We go through three compounds from patent US7045343B2, “Sterilization indicator test packs” (3M Innovative Properties Company, priority 1998, dated 2006).

Experiment [1] deals with Bacillus stearothermophilus spores. The experiment is described as follows: Spore outgrowth (color change) of indicators after prevacuum steam sterilization. The format is cell-based. The note with it: 4-pulse prevacuum steam 121° C. Here is the method:
(§1) The indicators prepared for the Examples were dual rapid readout indicators that provided both a rapid, enzyme-based efficacy test and a confirmatory spore outgrowth test. Spores coated on the carrier strip 16 served as the source of active enzyme whose activity was measured by the rapid enzyme test. These same spores were then incubated in the spore outgrowth portion of the test.
(§2) Bacillus stearothermophilus, commercially available as ATCC 7953 from American Type Culture Collection, Rockville, Md., was grown overnight (16 hours) at 58° C. in tryptic soy broth. This culture was used to inoculate the surface of agar plates consisting of 8 g/l nutrient broth, 4 g/l yeast extract, 0.1 g/l manganese chloride and 20 g/l agar at pH 7.2. Plates were incubated at 58° C. for 72 hours. Spores were scraped from the plates and suspended in sterile distilled water. The spores were separated from the vegetative debris by centrifuging the suspension at 7000 rpm and 4° C. for 20 minutes. The supernatant was poured off and the spores were resuspended in sterile distilled water. The cleaning procedure was repeated several times. After the final wash, the spores were suspended in sterile distilled water, at a concentration of approximately 1×10^8 spores per milliliter.
(§3) The spores were then treated with the chemicals identified in Tables 1–5. All chemicals tested were obtained from commercial sources. The spores were centrifuged at 6000 rpm for 10 minutes. The supernatant and coating chemical mixtures were heated at 60–80° C. for several minutes and vortexed to get the material into solution. The spores were then mixed into the sterilant-resistant chemical solution. The sterilant-resistant chemical solution was applied to 5×25 mm, 591 A paper strips (Schleicher & Schuell, Inc., Keene, N.H.) by pipetting 10–15 microliters to each strip for a final population of about 1×10^6 spores per strip. The strips were dried 16 hours at 37° C.
(§4) The treated spore strips were placed on the bottom of the outer container 12 of the indicator 10 and a barrier was inserted between the spore strip 16 and the inner container 18, which contained enzyme substrate. A […] ( 11/16 inch) disc of polypropylene blown microfiber material, with a weight of 200 g/m^2, commercially available as “THINSULATE™ 200-B brand Thermal Insulation” from 3M Company, St. Paul, Minn., was used as the barrier. The inner container 18 contained 0.67 ml nutrient medium, consisting of 17 g of a bacteriological peptone and a 0.17 g/l of L-alanine, as well as 0.1 g 4-methylumbelliferyl-alpha-D-glucoside, commercially available from Sigma Chemical Company, St. Louis, Mo., dissolved in 200 microliters of N,N-dimethylformamide, and 0.03 g bromocresol purple pH indicator dye, per liter of water. The pH of the enzyme substrate and nutrient medium solution was adjusted to 7.6 with 0.1N sodium hydroxide.
(§5) Sterilization indicators were made as described above with each of the chemicals and concentrations described in Table 1. Control indicators were made using untreated spores. The indicators were placed in metal instrument trays and exposed at 121° C. in a Getinge Steam Sterilizer (Getinge International, Inc., 1100 Towbin Ave., Lakewood, N.J.) using a 4-pulse prevacuum cycle at 121° C. with a vacuum level of 0.075–0.085 bar and a steam pulse to 1.00 bar for each pulse. Indicators were exposed in the sterilizer for between 7 and 13 minutes. This cycle is depicted in the time-pressure diagram in FIG. 5. After exposure the inner containers containing the enzyme substrate and nutrient medium were crushed and the indicators were incubated at 60° C. The indicators were examined for fluorescence using a 3M™ ATTEST™ Model 190 Rapid Autoreader, commercially available from 3M Company, St. Paul, Minn. Additionally, spore growth, as indicated by a color change from purple to yellow, was determined visually after 168 hours of incubation at 60° C. […]

Experiment [2] has as its system enzyme associated with Bacillus stearothermophilus spores. The experiment in a line: Rapid enzyme fluorescence readout of dual rapid readout indicators after prevacuum steam sterilization. The format is biochemical. The following applies: 4-pulse prevacuum steam 121° C. Here is the method: as §1, §2, §3, §4, §5
Setting [3] is: Example 1, 20 mg/ml coating, 7–13 min.
[4] abbreviates: Example 1, 40 mg/ml coating, 7–13 min.
Setting [5] is: Example 3, 100 mg/ml coating, 7–15 min.
The mark [6] stands for this setting: Example 4, 100 mg/ml coating, 7–18 min.
Where [7] appears, read: Example 5, 50 mg/ml coating, 7–13 min.

Take Glycereth-7-diisononanoate: the “NO. GROWTH POSITIVE 168 HR” value in experiment [1] (setting [3]) came to 6. Also, the “NO. GROWTH POSITIVE 168 HR” value in experiment [1] (setting [4]) was determined as 17. Moreover, in experiment [2] (setting [3]), the “FLUORESCENCE - PERCENT POSITIVE 1 HR” value turned out to be 0%, the “FLUORESCENCE - PERCENT POSITIVE 2 HR” value is reported as 0%, the “FLUORESCENCE - PERCENT POSITIVE 3 HR” value was found to be 66.7% and the “FLUORESCENCE - PERCENT POSITIVE 4 HR” value was found to be 83.3%. In experiment [2] (setting [3]), the “FLUORESCENCE - PERCENT POSITIVE 5 HR” value came to 83.3% and the “FLUORESCENCE - PERCENT POSITIVE 6 HR” value was 83.3%. Besides, in experiment [2] (setting [4]), the “FLUORESCENCE - PERCENT POSITIVE 1 HR” value was found to be 0%, the “FLUORESCENCE - PERCENT POSITIVE 2 HR” value worked out at 64.7%, the “FLUORESCENCE - PERCENT POSITIVE 3 HR” value came to 88.2% and the “FLUORESCENCE - PERCENT POSITIVE 4 HR” value was 88.2%. In experiment [2] (setting [4]), the “FLUORESCENCE - PERCENT POSITIVE 5 HR” value is listed as 94.1% and the “FLUORESCENCE - PERCENT POSITIVE 6 HR” value is recorded as 100.0%.
Turning to `OC[C@@H](O)[C@@H](O)[C@H](O)[C@@H](O)CO` [Sorbitol], the “GROWTH POSITIVE 168 HR” value in experiment [1] (setting [5]) turned out to be 36. For the same compound, the “NO. GROWTH POSITIVE 168 HR” value in experiment [1] (setting [6]) is 37. Moreover, in experiment [2] (setting [5]), the “FLUORESCENCE - PERCENT POSITIVE 1 HR” value was 0%, the “FLUORESCENCE - PERCENT POSITIVE 2 HR” value is on record as 52.8%, the “FLUORESCENCE - PERCENT POSITIVE 3 HR” value is given as 83.3% and the “FLUORESCENCE - PERCENT POSITIVE 4 HR” value worked out at 91.7%. For the same compound, in experiment [2] (setting [6]), the “FLUORESCENCE - PERCENT POSITIVE 1 HR” value stood at 5.4%, the “FLUORESCENCE - PERCENT POSITIVE 2 HR” value came out at 40.5%, the “FLUORESCENCE - PERCENT POSITIVE 3 HR” value is on record as 81.1% and the “FLUORESCENCE - PERCENT POSITIVE 4 HR” value turned out to be 89.2%.
With POE(60) Sorbitol Tetrastearate, in experiment [1] (setting [7]), the “NO. GROWTH POSITIVE 168 HR” value amounted to 5. Further, in experiment [2] (setting [7]), the “FLUORESCENCE - PERCENT POSITIVE 1 HR” value was 0%, the “FLUORESCENCE - PERCENT POSITIVE 2 HR” value is given as 0%, the “FLUORESCENCE - PERCENT POSITIVE 3 HR” value turned out to be 0% and the “FLUORESCENCE - PERCENT POSITIVE 4 HR” value is on record as 0%.
